Test results taken from ChEMBL document CHEMBL3046905, “Synthesis, biological evaluation and molecular docking studies of 1,3-benzoxazine derivatives as potential anticancer agents” (Med Chem Res, 2013).
pIC50: −log10 of the molar value. Active and inactive are the calls of the source. The rule behind the calls is not given here.

Assays:
MCF7 [1] = assay: Growth inhibition of Homo sapiens (human) MCF7 cells at 7.5 ug/ml after 48 hr by MTT assay relative to control; assay type: functional; conditions: for inhibition of growth at 7.5 µg/mL: MCF7, 48 h, read-out: GI
MCF7 [2] = assay: Growth inhibition of Homo sapiens (human) MCF7 cells at 15 ug/ml after 48 hr by MTT assay relative to control; assay type: functional; conditions: for inhibition of growth at 15 µg/mL: MCF7, 48 h, read-out: GI
MCF7 [3] = assay: Growth inhibition of Homo sapiens (human) MCF7 cells at 30 ug/ml after 48 hr by MTT assay relative to control; assay type: functional; conditions: MCF7, 48 h, read-out: GI
MCF7 [4] = assay: Growth inhibition of Homo sapiens (human) MCF7 cells after 48 hr by MTT assay; assay type: functional, cell-based; conditions: for pIC50: Homo sapiens, MCF7, 48 h, read-out: IC50; for IC50: mcf7
MCF7 [5] = assay: Growth inhibition of Homo sapiens (human) MCF7 cells at 60 ug/ml after 48 hr by MTT assay relative to control; assay type: functional; conditions: MCF7, 48 h, read-out: GI

O=c1cc(-c2ccccc2)oc2ccc(N3COc4c(Br)cccc4C3)cc12
growth inhibition (GI) (MCF7 [1]): inactive
inhibition of growth at 15 µg/mL (MCF7 [2]): 37.8%
inhibition of growth at 30 µg/mL (MCF7 [3]): 71.6%
pIC50 (MCF7 [4]): 4.71
inhibition of growth at 60 µg/mL (MCF7 [5]): 81.8%

COc1cccc2c1C(=O)c1c(O)c3c(c(O)c1C2=O)C[C@@](O)(C(=O)CO)C[C@@H]3O[C@H]1C[C@H](N)[C@H](O)[C@H](C)O1 [DOXORUBICIN]
inhibition of growth at 7.5 µg/mL (MCF7 [1]): 50.8%
inhibition of growth at 15 µg/mL (MCF7 [2]): 70.3%
inhibition of growth at 30 µg/mL (MCF7 [3]): 88.9%
pIC50 (MCF7 [4]): 5.14
inhibition of growth at 60 µg/mL (MCF7 [5]): 99.5%

O=c1cc(-c2ccccc2)oc2ccc(N3COc4c(cccc4[N+](=O)[O-])C3)cc12
inhibition of growth at 7.5 µg/mL (MCF7 [1]): 8.2%
inhibition of growth at 15 µg/mL (MCF7 [2]): 55.9%
inhibition of growth at 30 µg/mL (MCF7 [3]): 61.9%
pIC50 (MCF7 [4]): 4.55
inhibition of growth at 60 µg/mL (MCF7 [5]): 72.9%

O=c1cc(-c2ccccc2)oc2cc(N3COc4ccccc4C3)ccc12
inhibition of growth at 7.5 µg/mL (MCF7 [1]): 2.65%
inhibition of growth at 15 µg/mL (MCF7 [2]): 3.89%
inhibition of growth at 30 µg/mL (MCF7 [3]): 12.7%
IC50 (MCF7 [4]): Not Active
inhibition of growth at 60 µg/mL (MCF7 [5]): 19.3%

Cc1ccc2c(c1)CN(c1ccc3oc(-c4ccccc4)cc(=O)c3c1)CO2
inhibition of growth at 7.5 µg/mL (MCF7 [1]): 16.5%
inhibition of growth at 15 µg/mL (MCF7 [2]): 31%
inhibition of growth at 30 µg/mL (MCF7 [3]): 56.9%
pIC50 (MCF7 [4]): 4.53
inhibition of growth at 60 µg/mL (MCF7 [5]): 79.5%

O=c1cc(-c2ccccc2)oc2ccc(N3COc4c(Br)cc(Br)cc4C3)cc12
inhibition of growth at 7.5 µg/mL (MCF7 [1]): 6.54%
inhibition of growth at 15 µg/mL (MCF7 [2]): 13.6%
inhibition of growth at 30 µg/mL (MCF7 [3]): 16.1%
IC50 (MCF7 [4]): Not Active
inhibition of growth at 60 µg/mL (MCF7 [5]): 34.5%

COc1cccc2c1OCN(c1ccc3oc(-c4ccccc4)cc(=O)c3c1)C2
inhibition of growth at 7.5 µg/mL (MCF7 [1]): 32.5%
inhibition of growth at 15 µg/mL (MCF7 [2]): 54%
inhibition of growth at 30 µg/mL (MCF7 [3]): 67.8%
pIC50 (MCF7 [4]): 4.77
inhibition of growth at 60 µg/mL (MCF7 [5]): 91.9%

O=c1cc(-c2ccccc2)oc2ccc(N3COc4ccccc4C3)cc12
inhibition of growth at 7.5 µg/mL (MCF7 [1]): 8.7%
inhibition of growth at 15 µg/mL (MCF7 [2]): 34%
inhibition of growth at 30 µg/mL (MCF7 [3]): 68.5%
pIC50 (MCF7 [4]): 4.56
inhibition of growth at 60 µg/mL (MCF7 [5]): 92.7%

O=c1cc(-c2ccccc2)oc2cc(N3COc4c(Cl)cc(Cl)cc4C3)ccc12
growth inhibition (GI) (MCF7 [1]): inactive
inhibition of growth at 15 µg/mL (MCF7 [2]): 11.8%
inhibition of growth at 30 µg/mL (MCF7 [3]): 34.6%
pIC50 (MCF7 [4]): 4.35
inhibition of growth at 60 µg/mL (MCF7 [5]): 68.8%

COc1cc2c(c(OC)c1)OCN(c1ccc3oc(-c4ccccc4)cc(=O)c3c1)C2
inhibition of growth at 7.5 µg/mL (MCF7 [1]): 48.9%
inhibition of growth at 15 µg/mL (MCF7 [2]): 60%
inhibition of growth at 30 µg/mL (MCF7 [3]): 79%
pIC50 (MCF7 [4]): 5.10
inhibition of growth at 60 µg/mL (MCF7 [5]): 99.1%

COc1cc2c(c(OC)c1)OCN(c1ccc3c(=O)cc(-c4ccccc4)oc3c1)C2
inhibition of growth at 7.5 µg/mL (MCF7 [1]): 45.8%
inhibition of growth at 15 µg/mL (MCF7 [2]): 62.9%
inhibition of growth at 30 µg/mL (MCF7 [3]): 75.9%
pIC50 (MCF7 [4]): 4.92
inhibition of growth at 60 µg/mL (MCF7 [5]): 88.9%

Cc1cccc2c1OCN(c1ccc3c(=O)cc(-c4ccccc4)oc3c1)C2
inhibition of growth at 7.5 µg/mL (MCF7 [1]): 43.9%
inhibition of growth at 15 µg/mL (MCF7 [2]): 54.9%
inhibition of growth at 30 µg/mL (MCF7 [3]): 57.8%
pIC50 (MCF7 [4]): 4.83
inhibition of growth at 60 µg/mL (MCF7 [5]): 66.6%

O=c1cc(-c2ccccc2)oc2ccc(N3COc4c(Cl)cc(Cl)cc4C3)cc12
inhibition of growth at 7.5 µg/mL (MCF7 [1]): 32.8%
inhibition of growth at 15 µg/mL (MCF7 [2]): 61.3%
inhibition of growth at 30 µg/mL (MCF7 [3]): 74%
pIC50 (MCF7 [4]): 4.92
inhibition of growth at 60 µg/mL (MCF7 [5]): 80.3%

O=c1cc(-c2ccccc2)oc2cc(N3COc4c(Br)cc(Br)cc4C3)ccc12
inhibition of growth at 7.5 µg/mL (MCF7 [1]): 1.48%
inhibition of growth at 15 µg/mL (MCF7 [2]): 1.64%
inhibition of growth at 30 µg/mL (MCF7 [3]): 11.1%
IC50 (MCF7 [4]): Not Active
inhibition of growth at 60 µg/mL (MCF7 [5]): 26.5%

Cc1cccc2c1OCN(c1ccc3oc(-c4ccccc4)cc(=O)c3c1)C2
inhibition of growth at 7.5 µg/mL (MCF7 [1]): 30.4%
inhibition of growth at 15 µg/mL (MCF7 [2]): 60.9%
inhibition of growth at 30 µg/mL (MCF7 [3]): 72.4%
pIC50 (MCF7 [4]): 4.84
inhibition of growth at 60 µg/mL (MCF7 [5]): 85.1%

Cc1cc(C)c2c(c1)CN(c1ccc3c(=O)cc(-c4ccccc4)oc3c1)CO2
inhibition of growth at 7.5 µg/mL (MCF7 [1]): 11.2%
growth inhibition (GI) (MCF7 [2]): inactive
inhibition of growth at 30 µg/mL (MCF7 [3]): 26.8%
pIC50 (MCF7 [4]): 4.21
inhibition of growth at 60 µg/mL (MCF7 [5]): 48.4%

O=c1cc(-c2ccccc2)oc2cc(N3COc4c(Br)cccc4C3)ccc12
inhibition of growth at 7.5 µg/mL (MCF7 [1]): 2.21%
inhibition of growth at 15 µg/mL (MCF7 [2]): 5.64%
inhibition of growth at 30 µg/mL (MCF7 [3]): 7.89%
IC50 (MCF7 [4]): Not Active
inhibition of growth at 60 µg/mL (MCF7 [5]): 19.5%

O=c1cc(-c2ccccc2)oc2cc(N3COc4c(cccc4[N+](=O)[O-])C3)ccc12
growth inhibition (GI) (MCF7 [1]): inactive
inhibition of growth at 15 µg/mL (MCF7 [2]): 1.96%
inhibition of growth at 30 µg/mL (MCF7 [3]): 5.65%
IC50 (MCF7 [4]): Not Active
inhibition of growth at 60 µg/mL (MCF7 [5]): 15.7%
